According to patent US11702400B2, “Salt types, crystal forms, and preparation methods for benzopyrazole compounds as RHO kinase inhibitors” (MEDSHINE DISCOVERY INC., priority 2019, dated 2023):

Legend:
[1] = Solid stability test of the crystal form A of the compound of formula (II-1) (XRPD); format: physicochemical
Experimental: About 10 mg of the crystal form was accurately weighed and added to a dry and clean glass flask, spread into a thin layer, covered with aluminum foil, pierced small holes and placed under the influence factor test conditions and under accelerated conditions. Samples placed under illumination (visible light 1200000 Lux, UV 200 W) conditions were placed in clear glass flasks, fully exposed, and samples used for XRPD detection were placed separately.
After the samples were removed at the time point, the cover was covered, and the flask was sealed using sealing film, and stored in −20° C. refrigerator. When preparing the sample, the sample was removed from the refrigerator, restored to room temperature; 10 mL of 80% ACN was added, and the sample was dissolved by sonication for 2 min to obtain a solution with a concentration of about 1 mg/mL, then the liquid phase was used for injection analysis, and the detection results were compared with the initial detection results on day 0.
Preparation of standard solution on day 0: About 10 mg of the crystal was weighed and added to a 10 mL volumetric flask, dissolved with 80% ACN and the volume was fixed to the scale.

[2] = Accelerated stability test of the crystal form A of the compound of formula (II-1); format: physicochemical; settings: 40° C./75% RH
Experimental: Accelerated stability test: each sample was weighed 0.8 g (accelerated 1 month, accelerated 2 months) or 1.2 g (accelerated 3 months, accelerated 6 months) into double-layer low-density polyethylene (LDPE) bags, and each layer of LDPE bags was pierced and sealed, and then the LDPE bags were put into aluminum foil bags and heat sealed, respectively, and put into 40° C./75% RH conditions for investigation.

[3] = Pharmacokinetic study of the crystal form A of the compound of formula (II-1) in Beagle dogs; format: in vivo
Experimental: Experimental purpose: To study the pharmacokinetics of the compounds in Beagle dogs
Experimental materials: Beagle dogs (12, half male and half female)
Experimental procedure: The pharmacokinetic characteristics of the compounds were tested in Beagle dogs after intravenous (IV) and oral (PO) administration using standard protocols. The candidate compounds were prepared into 0.5 mg/mL and 1.5 mg/mL clarified solutions and administrated to Beagle dogs for single intravenous injection and oral administration. The solvent for both intravenous and oral administration was 5% DMSO/95% (10% hydroxypropyl β-cyclodextrin) aqueous solution. 12 beagle dogs were used in this project, 6 beagle dogs (half male and half female) were administered intravenously at a dose of 1 mg/kg and plasma samples were collected at […], 0.5, 1, 2, 4, 8, 12, 24, 36, 48 and 72 h after administration, and the other 6 beagle dogs (half male and half female) were administered orally by gavage at a dose of 7.5 mg/kg and plasma samples were collected at 0.25, 0.5, 1, 2, 4, 8, 12, 24, 36, 48 and 72 h after administration. 15 μL of plasma sample was added to a 96-well plate, and 300 μL of internal standard working solution (MeOH (containing 1.00 ng/mL Verapamil and 0.1% formic acid (FA)): ACN (v:v, 50:50) solution) was added to precipitate the proteins, the 96-well plate was shaken for 15 min, followed by centrifugation at 4° C., 3220 g for 15 min. 150 μL of supernatant was placed in a new 96-well plate with 150 μL of aqueous solution containing 0.1% formic acid (FA) and shaken for 10 min, and then centrifuged at 4° C., 3220 g for 5 min. The sample was directly injected, and the plasma drug concentration was quantitatively analyzed by LC-MS/MS analysis method, and pharmacokinetic parameters were calculated, such as peak concentration (Cmax), clearance rate (CL), half-life (T1/2), […] (Vdss), area under the drug-time curve (AUC0-last), bioavailability (F), etc.

[4] = Influence factor stability test of the crystal form A of the compound of formula (II-1); format: physicochemical
Experimental: High humidity (25° C./92.5% RH): 1 g of each sample was weighed and the sample was placed in an open flat weighing bottle (70×35 mm) under 25° C./92.5% RH conditions, and then placed in a comprehensive drug stability chamber (25° C./92.5% RH) for investigation.
High temperature (60° C.): 1 g of each sample was weighed and the sample was placed in an open flat weighing bottle under 60° C. conditions, and then placed in a blast drying oven (60° C.) for investigation.
Illumination: 1 g of each sample was weighed. The samples with illumination condition were placed in a clean watch glass, spread into a thin layer and put into 5000±500 lux (visible light) with 90 μw/cm^2 (UV) conditions for illumination.

Structure (SMILES): COc1cccc(C(CN)NC(=O)c2cc(-c3ccc4[nH]nc(C)c4c3)ccn2)c1.Cl.Cl (centres unmarked)
- Crystal form ([1]; 0 day): Crystal form A
- solid stability (conclusion in words) ([1]; 92.5% high humidity conditions): crystal transformation will occur
- Crystal form ([1]; High humidity (relative humidity 75%, open), 5 days): Crystal form A
- Crystal form ([1]; High humidity (relative humidity 75%, open), 10 days): Crystal form A
- Crystal form ([1]; High humidity (relative humidity 92.5%, open), 5 days): Crystal form C
- Crystal form ([1]; High humidity (relative humidity 92.5%, open), 10 days): Crystal form C
- Crystal form ([1]; High temperature (60° C., open), 5 days): Crystal form A
- Crystal form ([1]; High temperature (60° C., open), 10 days): Crystal form A
- Crystal form ([1]; High temperature and humidity (40° C. relative humidity 75%, open), 5 days): Crystal form A
- Crystal form ([1]; High temperature and humidity (40° C. relative humidity 75%, open), 10 days): Crystal form A
- Crystal form ([1]; High temperature and humidity (60° C. relative humidity 75%, open), 5 days): Crystal form A
- Crystal form ([1]; High temperature and humidity (60° C. relative humidity 75%, open), 10 days): Crystal form A
- Crystal form ([1]; Illumination (total illuminance = 1.2 × 10^6 Lux·hr/near UV = 200 w·hr/m^2, open), 5 days): Crystal form A
- Crystal form ([1]; Illumination (total illuminance = 1.2 × 10^6 Lux·hr/near UV = 200 w·hr/m^2, open), 10 days): Crystal form A
- solid stability (conclusion in words) ([1]; high temperature, 75% humidity and strong illumination conditions): good stability
- Content ([2]; 0 day): 99.5%
- Impurity at RRT 0.66 ([2]; 0 day): 0.06%
- Impurity at RRT 0.85 ([2]; 0 day): 0.34%
- Impurity at RRT 0.90 ([2]; 0 day): 0.02%
- Impurity at RRT 1.64 ([2]; 0 day): 0.06%
- Total impurities ([2]; 0 day): 0.46%
- Content ([2]; 1 month): 100.0%
- Impurity at RRT 0.66 ([2]; 1 month): 0.06%
- Impurity at RRT 0.85 ([2]; 1 month): 0.36%
- Impurity at RRT 0.90 ([2]; 1 month): 0.02%
- Impurity at RRT 1.64 ([2]; 1 month): 0.05%
- Total impurities ([2]; 1 month): 0.47%
- Content ([2]; 2 months): 99.6%
- Impurity at RRT 0.66 ([2]; 2 months): 0.06%
- Impurity at RRT 0.85 ([2]; 2 months): 0.33%
- Impurity at RRT 0.90 ([2]; 2 months): 0.03%
- Impurity at RRT 1.64 ([2]; 2 months): 0.04%
- Total impurities ([2]; 2 months): 0.39%
- Content ([2]; 3 months): 98.8%
- Impurity at RRT 0.66 ([2]; 3 months): 0.06%
- Impurity at RRT 0.85 ([2]; 3 months): 0.33%
- Impurity at RRT 0.90 ([2]; 3 months): 0.04%
- Impurity at RRT 1.64 ([2]; 3 months): 0.04%
- Total impurities ([2]; 3 months): 0.39%
- Clearance rate CL ([3]; Beagle dogs, IV 1 mg/kg): 22.3 mL/min/kg
- Half-life T1/2 (IV) ([3]; Beagle dogs, IV 1 mg/kg): 12.4 h
- Tissue distribution Vdss ([3]; Beagle dogs, IV 1 mg/kg): 18.6 L/kg
- Bioavailability F ([3]; Beagle dogs, IV 1 mg/kg, PO 7.5 mg/kg): 90.4%
- Area under drug-time curve AUC0-last PO ([3]; Beagle dogs, PO 7.5 mg/kg): 12.6 µM·h
- Cmax ([3]; Beagle dogs, half male and half female, PO 7.5 mg/kg, read-out: Peak concentration Cmax): 834 nM
- pharmacokinetic properties (conclusion in words) ([3]; beagle dogs): good pharmacokinetic properties
- Content ([4]; 0 day): 99.5%
- Impurity at relative retention time (RRT) 0.66 ([4]; 0 day): 0.06%
- Impurity at relative retention time (RRT) 0.85 ([4]; 0 day): 0.34%
- Impurity at relative retention time (RRT) 0.90 ([4]; 0 day): 0.02%
- Impurity at relative retention time (RRT) 1.64 ([4]; 0 day): 0.06%
- Total impurities ([4]; 0 day): 0.46%
- Content ([4]; 25° C./92.5% RH, 1 month): 98.9%
- Impurity at relative retention time (RRT) 0.66 ([4]; 25° C./92.5% RH, 1 month): 0.06%
- Impurity at relative retention time (RRT) 0.85 ([4]; 25° C./92.5% RH, 1 month): 0.32%
- Impurity at relative retention time (RRT) 0.90 ([4]; 25° C./92.5% RH, 1 month): 0.03%
- Impurity at relative retention time (RRT) 1.64 ([4]; 25° C./92.5% RH, 1 month): 0.05%
- Total impurities ([4]; 25° C./92.5% RH, 1 month): 0.43%
- Content ([4]; 60° C., 1 month): 99.6%
- Impurity at relative retention time (RRT) 0.66 ([4]; 60° C., 1 month): 0.06%
- Impurity at relative retention time (RRT) 0.85 ([4]; 60° C., 1 month): 0.31%
- Impurity at relative retention time (RRT) 0.90 ([4]; 60° C., 1 month): 0.06%
- Impurity at relative retention time (RRT) 1.64 ([4]; 60° C., 1 month): 0.04%
- Total impurities ([4]; 60° C., 1 month): 0.43%
- Content ([4]; Illumination, 10 days): 97.6%
- Impurity at relative retention time (RRT) 0.66 ([4]; Illumination, 10 days): 0.09%
- Impurity at relative retention time (RRT) 0.85 ([4]; Illumination, 10 days): 0.31%
- Impurity at relative retention time (RRT) 0.90 ([4]; Illumination, 10 days): 0.02%
- Impurity at relative retention time (RRT) 1.64 ([4]; Illumination, 10 days): 0.05%
- Total impurities ([4]; Illumination, 10 days): 0.51%
- stability in influence factor test (conclusion in words) ([4]; illumination, high temperature and high humidity): stable
